From PMC4634863, “A Putative Non-Canonical Ras-Like GTPase from P. falciparum: Chemical Properties and Characterization of the Protein” (PLoS ONE, 2015) come the findings set out here.

This test deals with T1, PfG (Plasmodium falciparum, UniProt O77338).
T1 construct: gene PF3D7_0313500
T1 sequence (O77338 1-911): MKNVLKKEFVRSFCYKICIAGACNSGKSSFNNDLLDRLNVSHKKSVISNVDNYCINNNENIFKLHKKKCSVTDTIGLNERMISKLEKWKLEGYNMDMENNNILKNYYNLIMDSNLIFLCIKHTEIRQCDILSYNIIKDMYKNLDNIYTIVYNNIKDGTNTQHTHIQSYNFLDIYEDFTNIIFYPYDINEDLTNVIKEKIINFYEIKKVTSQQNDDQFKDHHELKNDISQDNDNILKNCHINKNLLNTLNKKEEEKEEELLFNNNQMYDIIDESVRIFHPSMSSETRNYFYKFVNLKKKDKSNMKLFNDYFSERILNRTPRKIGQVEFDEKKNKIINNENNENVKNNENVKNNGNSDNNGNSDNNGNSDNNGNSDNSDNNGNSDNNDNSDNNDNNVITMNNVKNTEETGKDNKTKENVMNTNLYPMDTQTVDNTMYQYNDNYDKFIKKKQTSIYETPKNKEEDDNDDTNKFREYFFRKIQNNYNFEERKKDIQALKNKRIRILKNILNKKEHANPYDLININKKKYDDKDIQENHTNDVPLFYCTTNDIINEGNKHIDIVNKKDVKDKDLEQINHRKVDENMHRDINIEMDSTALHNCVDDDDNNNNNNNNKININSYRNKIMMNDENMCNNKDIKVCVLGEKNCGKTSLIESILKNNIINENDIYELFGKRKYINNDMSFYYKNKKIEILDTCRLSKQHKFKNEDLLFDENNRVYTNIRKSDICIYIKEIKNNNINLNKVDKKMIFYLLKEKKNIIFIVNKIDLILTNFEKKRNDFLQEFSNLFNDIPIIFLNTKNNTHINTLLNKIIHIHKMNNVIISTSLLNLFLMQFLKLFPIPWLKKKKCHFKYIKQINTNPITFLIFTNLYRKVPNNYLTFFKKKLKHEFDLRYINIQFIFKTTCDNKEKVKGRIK
The test is described as follows: fluorescence emission on binding, […] s time courses. As to conditions: labelled compound; reversible nucleotide binding, unit printed as nmol (nM probably meant).

BODIPY® FL GTPγS: the “dissociation constant (Kd)” value worked out at 1.77 ± 0.36 nmol.
